From patent publication US20240376099A1, “COMPOUNDS AND COMPOSITIONS AS INHIBITORS OF ENDOSOMAL TOLL-LIKE RECEPTORS” (Novartis AG, priority 2016, published 2024)

The compounds below were run against T1, TLR8 (Homo sapiens, UniProt Q9NR97) (assay: huPBMC TLR8 Antagonist IL-6 TR-FRET Assay). Details: human PBMCs stimulated with ssRNA40 1 μg/ml (DOTAP), 14-16 hrs; IL-6 TR-FRET read-out.
T1 sequence (Q9NR97 27-1041): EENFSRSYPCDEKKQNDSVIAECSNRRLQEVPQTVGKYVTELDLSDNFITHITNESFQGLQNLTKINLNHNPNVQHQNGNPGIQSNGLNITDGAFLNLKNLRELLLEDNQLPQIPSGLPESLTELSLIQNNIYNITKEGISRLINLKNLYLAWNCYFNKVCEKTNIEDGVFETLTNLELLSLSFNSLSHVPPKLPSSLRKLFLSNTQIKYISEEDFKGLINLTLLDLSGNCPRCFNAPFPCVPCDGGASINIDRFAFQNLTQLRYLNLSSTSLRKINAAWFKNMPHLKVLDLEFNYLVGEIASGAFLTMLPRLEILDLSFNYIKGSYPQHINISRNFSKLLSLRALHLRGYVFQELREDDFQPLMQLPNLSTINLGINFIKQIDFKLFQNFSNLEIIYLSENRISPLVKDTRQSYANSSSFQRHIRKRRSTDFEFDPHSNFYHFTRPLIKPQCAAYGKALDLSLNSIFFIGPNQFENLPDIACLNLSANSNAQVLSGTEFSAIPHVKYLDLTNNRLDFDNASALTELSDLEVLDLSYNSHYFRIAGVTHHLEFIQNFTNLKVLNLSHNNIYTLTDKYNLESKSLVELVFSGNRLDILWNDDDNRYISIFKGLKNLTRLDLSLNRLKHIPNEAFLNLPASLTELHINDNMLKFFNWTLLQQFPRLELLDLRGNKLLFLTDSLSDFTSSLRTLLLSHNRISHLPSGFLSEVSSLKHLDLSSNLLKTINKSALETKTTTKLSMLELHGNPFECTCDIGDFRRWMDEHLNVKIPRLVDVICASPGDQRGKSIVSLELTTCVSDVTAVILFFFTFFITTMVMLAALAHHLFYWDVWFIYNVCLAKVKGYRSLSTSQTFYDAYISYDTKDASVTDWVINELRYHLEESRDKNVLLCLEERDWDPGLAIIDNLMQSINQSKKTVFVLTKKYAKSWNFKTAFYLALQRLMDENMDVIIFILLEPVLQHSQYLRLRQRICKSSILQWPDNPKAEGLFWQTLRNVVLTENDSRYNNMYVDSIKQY
Assay type: cell-based
Design: Fresh blood was collected from normal human donors; endogenous in cells; host or cells: human PBMCs from fresh donor blood
Description: Compounds were generally serially diluted (1/3) in DMSO and plated on sterile 384 well tissue culture plates and stored until ready for use. Each ten-point dilution was typically plated in triplicate in parallel rows.
Fresh blood was collected from normal human donors underwritten informed consent in heparinized syringes on the morning of the assay. The blood was diluted in RPMI-1640 medium and the white blood cells were separated from red blood cells by centrifugation (800 g 15′ 0 acceleration, 0 brake) on a Ficoll cushion. Peripheral blood mononuclear cells (PBMCs) were separated from platelets by a series of low-speed centrifugations (1000RPM 10′) in PBS+5% HI—FBS and 1 mM EDTA. Purified PBMCs were re-suspended in assay medium (RPMI-1640 w Glutamax (Invitrogen) supplemented with 5% HI—FBS, 10 mM HEPES, 50 uM β-mercaptoethanol, and 100 mG/L penicillin/streptomycin cocktail). Viable PBMCs were counted on a hemacytometer and kept on ice until ready for plating.
A 4× concentration (4 ug/ml or 40 ug/ml for TLR8 or TLR7 assays, respectively) of the TLR7/8 agonist ssRNA40 (IDT) was complexed with 10% DOTAP (Roche) in assay medium for 30 min prior to addition to the PBMC suspension (5 million cells/ml). After addition, the final concentration of ssRNA40 in the TLR7/8 stimulated PBMC suspension was 1 μg/ml for TLR8 assay, and 10 μg/mL for the TLR7 assay. The final DOTAP concentration was 2.5%. Diluted PBMCs (5 million cells/ml) were treated with 4×TLR9 agonist ODN2216 (Invivogen). Final concentration of ODN2216 in TLR9 stimulated PBMC suspension was 0.3 μM.
Agonist stimulated PBMCs were plated on the compound treated 384 well plates at 150,000 cells/well. Un-stimulated PBMCs were plated as controls on each plate. Plating volume was 40 μL per well. DMSO concentration in each well was 0.25%.
A separate plate, without compounds, with titrations of ssRNA40 and ODN2216 was included in every assay to measure agonist response of each donor's PBMC prep. Assay plates were placed in a tissue culture incubator (37° C., 5% CO2) for 14-16 hrs. After this incubation, the plates were centrifuged and stored at −20° C. until they were assayed.
IL-6 TR-FRET Assay for TLR8 activity: • 1) Cisbio Human IL-6 kit, 20,000 tests (62TNFPEC), and GNF High-Base TC 384 well plates (cat #789163G) were used; • 2) the Anti-TIL-6 Cryptate conjugate and the Anti-IL-6 XL665 conjugate were diluted 1:20 in Reconstitution Buffer; • 3) a 1:1 mixture of 3 μl/well Anti-IL-6 Cryptate conjugate and 3 μl/well Anti-IL-6 XL665 conjugate was prepared; • 4) 6 μl/well HTRF dilution mastermix was added to 6 μl of transferred supernatant samples in proxiplates; • 5) The plates were incubated for 3 hrs at rt in the dark; and • 6) the levels of IL-6 production was measured using an Envision plate reader (665 nm (emmission)/590 nm (excitation)) with HTRF settings and ratiometric read-out: (XL665 emission/Eu Cryptate emission)×10,000. IFNα2b AlphaLISA Assay for TLR7 or TLR9 activity After thawing the assay plates, 6 μL of supernatant samples were transferred to a low-volume AlphaPlate 384SW (Perkin-Elmer). The concentration of IFNα in supernatants was measured using the IFNα2b AlphaLISA Assay (Perkin-Elmer: AL297F). 3 μL of IFNα acceptor beads/biotinylated antibody solution was added first, using laboratory automation. After an hour incubation, […] of streptavidin […] bead solution was added. The plates containing this mixture were incubated in the dark for an hour and read on an appropriate plate reader at reading parameters set by the manufacturer. (Envision, EnSpire: Perkin-Elmer).
COc1ccc(-c2cc(N3CCc4c(c(C)nn4CC45CCC(N)(CC4)CC5)C3)ccn2)cc1 [compound 89, 4-((5-(2-(4-methoxyphenyl)pyridin-4-yl)-3-methyl-4,5,6,7-tetrahydro-1H-pyrazolo[4,3-c]pyridin-1-yl)methyl)bicyclo[2.2.2]octan-1-amine] was tested, and the IC50 was 0.622 µM.
Cc1ccc(-c2cc(N3CCc4c(c(C)nn4CC45CCC(N)(CC4)CC5)C3)ccn2)cc1 [compound 90, 4-((3-methyl-5-(2-(p-tolyl)pyridin-4-yl)-4,5,6,7-tetrahydro-1H-pyrazolo[4,3-c]pyridin-1-yl)methyl)bicyclo[2.2.2]octan-1-amine] gave an IC50 of 1.01 µM.
Cc1cc(N2CCc3c(c(C)nn3CC34CCC(N)(CC3)CC4)C2)cc(-c2ccccc2)n1 [compound 93, 4-((3-methyl-5-(2-methyl-6-phenylpyridin-4-yl)-4,5,6,7-tetrahydro-1H-pyrazolo[4,3-c]pyridin-1-yl)methyl)bicyclo[2.2.2]octan-1-amine] was tested, and the IC50 was 0.983 µM.
Cc1nn(CC23CCC(N)(CC2)CC3)c2c1CN(c1ccnc(-c3ccccn3)c1)CC2 [compound 94, 4-((5-([2,2'-bipyridin]-4-yl)-3-methyl-4,5,6,7-tetrahydro-1H-pyrazolo[4,3-c]pyridin-1-yl)methyl)bicyclo[2.2.2]octan-1-amine] showed an IC50 of 1.11 µM.
Cc1cc(N2CCc3c(c(C)nn3CC34CCC(N5CCCCC5)(CC3)CO4)C2)c2cnn(C)c2n1 [compound 95, 5-(1,6-dimethyl-1H-pyrazolo[3,4-b]pyridin-4-yl)-3-methyl-1-((4-(piperidin-1-yl)-2-oxabicyclo[2.2.2]octan-1-yl)methyl)-4,5,6,7-tetrahydro-1H-pyrazolo[4,3-c]pyridine] gave an IC50 of 0.085 µM.
COCC(C)NC12CCC(Cn3nc(C)c4c3CCN(c3cc(C)nc5c3cnn5C)C4)(CC1)CC2 (stereo not drawn) [compound 96, 4-((5-(1,6-dimethyl-1H-pyrazolo[3,4-b]pyridin-4-yl)-3-methyl-4,5,6,7-tetrahydro-1H-pyrazolo[4,3-c]pyridin-1-yl)methyl)-N-(1-methoxypropan-2-yl)bicyclo[2.2.2]octan-1-amine] gave an IC50 of 0.775 µM.
CCN(C)C12CCC(Cn3nc(C)c4c3CCN(c3cc(C)nc5c3cnn5C)C4)(CC1)CC2 [compound 97, 4-((5-(1,6-dimethyl-1H-pyrazolo[3,4-b]pyridin-4-yl)-3-methyl-4,5,6,7-tetrahydro-1H-pyrazolo[4,3-c]pyridin-1-yl)methyl)-N-ethyl-N-methylbicyclo[2.2.2]octan-1-amine] gave an IC50 of 0.089 µM.
For Cc1cc(N2CCc3c(c(C)nn3CC34CCC(N(C)C)(CC3)CO4)C2)c2cnn(C)c2n1 [compound 98, 1-((5-(1,6-dimethyl-1H-pyrazolo[3,4-b]pyridin-4-yl)-3-methyl-4,5,6,7-tetrahydro-1H-pyrazolo[4,3-c]pyridin-1-yl)methyl)-N,N-dimethyl-2-oxabicyclo[2.2.2]octan-4-amine], the IC50 was 0.718 µM.
Cc1nn(CC23CCC(N)(CC2)CC3)c2c1CN(c1nc(Cl)nc3c1COC3)CC2 [compound 103, 4-((5-(2-chloro-5,7-dihydrofuro[3,4-d]pyrimidin-4-yl)-3-methyl-4,5,6,7-tetrahydro-1H-pyrazolo[4,3-c]pyridin-1-yl)methyl)bicyclo[2.2.2]octan-1-amine] was tested, and the IC50 was 1.42 µM.
Work on Cc1cc(N2CCc3c(c(C)nn3CC34CCC(NC(=O)C5COCCN5C)(CC3)CC4)C2)c2cnn(C)c2n1 (stereo not drawn) [compound 122, N-(4-((5-(1,6-dimethyl-1H-pyrazolo[3,4-b]pyridin-4-yl)-3-methyl-4,5,6,7-tetrahydro-1H-pyrazolo[4,3-c]pyridin-1-yl)methyl)bicyclo[2.2.2]octan-1-yl)-4-methylmorpholine-3-carboxamide] yielded an IC50 of 0.922 µM.
For Cc1nc(N2CCc3c(c(C)nn3CC34CCC(N)(CC3)CC4)C2)c2cnn(C)c2n1 [compound 149, 4-((5-(1,6-dimethyl-1H-pyrazolo[3,4-d]pyrimidin-4-yl)-3-methyl-4,5,6,7-tetrahydro-1H-pyrazolo[4,3-c]pyridin-1-yl)methyl)bicyclo[2.2.2]octan-1-amine], the IC50 was 0.695 µM.
CCn1ncc2c(N3CCc4c(c(C)nn4CC45CCC(N)(CC4)CC5)C3)cc(C)nc21 [compound 150, 4-((5-(1-ethyl-6-methyl-1H-pyrazolo[3,4-b]pyridin-4-yl)-3-methyl-4,5,6,7-tetrahydro-1H-pyrazolo[4,3-c]pyridin-1-yl)methyl)bicyclo[2.2.2]octan-1-amine] gave an IC50 of 4.2 µM.
